In PMC4899901, “Sorokiniol: a new enzymes inhibitory metabolite from fungal endophyte Bipolaris sorokiniana LK12” (BMC Microbiology, 2016):

Experiments:
[1] = target: Acetyl Cholinestrase (AChE) (Electrophorus electricus, UniProt O42275); test: Ellman assay (acetylthiocholine/DTNB, […] nm) with electric eel AChE; type: biochemical; conditions: read-out: EC50 (the source's name) (converted)
Jack bean Urease = Jack bean Urease (Canavalia ensiformis, UniProt P07374); test: indophenol urease assay (ammonia production, […] nm); type: biochemical
Jack bean Urease, sequence (P07374 whole entry, looked up): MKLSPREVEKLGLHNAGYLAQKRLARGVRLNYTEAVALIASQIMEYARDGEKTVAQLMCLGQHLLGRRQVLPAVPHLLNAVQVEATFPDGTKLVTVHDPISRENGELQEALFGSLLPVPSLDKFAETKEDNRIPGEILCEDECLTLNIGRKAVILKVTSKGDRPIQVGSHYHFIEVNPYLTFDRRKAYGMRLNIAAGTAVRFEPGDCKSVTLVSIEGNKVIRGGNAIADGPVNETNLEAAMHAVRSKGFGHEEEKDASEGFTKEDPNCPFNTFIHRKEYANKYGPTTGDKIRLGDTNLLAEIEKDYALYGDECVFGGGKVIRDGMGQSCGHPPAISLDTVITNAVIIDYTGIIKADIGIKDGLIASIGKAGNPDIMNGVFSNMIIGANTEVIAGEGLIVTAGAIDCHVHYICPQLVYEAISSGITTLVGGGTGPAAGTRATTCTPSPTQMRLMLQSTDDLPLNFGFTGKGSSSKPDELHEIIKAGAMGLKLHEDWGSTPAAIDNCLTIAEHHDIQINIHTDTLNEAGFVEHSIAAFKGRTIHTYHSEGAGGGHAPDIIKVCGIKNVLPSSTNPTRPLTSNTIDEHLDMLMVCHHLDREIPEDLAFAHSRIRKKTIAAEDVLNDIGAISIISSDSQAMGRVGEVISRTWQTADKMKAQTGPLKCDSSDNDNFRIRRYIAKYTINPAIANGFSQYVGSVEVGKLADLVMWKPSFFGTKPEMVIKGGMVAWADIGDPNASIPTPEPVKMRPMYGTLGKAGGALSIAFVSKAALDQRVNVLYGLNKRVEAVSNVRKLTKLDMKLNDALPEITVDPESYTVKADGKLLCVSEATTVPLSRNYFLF

Acetyl Cholinestrase (AChE), sequence (O42275 24-633): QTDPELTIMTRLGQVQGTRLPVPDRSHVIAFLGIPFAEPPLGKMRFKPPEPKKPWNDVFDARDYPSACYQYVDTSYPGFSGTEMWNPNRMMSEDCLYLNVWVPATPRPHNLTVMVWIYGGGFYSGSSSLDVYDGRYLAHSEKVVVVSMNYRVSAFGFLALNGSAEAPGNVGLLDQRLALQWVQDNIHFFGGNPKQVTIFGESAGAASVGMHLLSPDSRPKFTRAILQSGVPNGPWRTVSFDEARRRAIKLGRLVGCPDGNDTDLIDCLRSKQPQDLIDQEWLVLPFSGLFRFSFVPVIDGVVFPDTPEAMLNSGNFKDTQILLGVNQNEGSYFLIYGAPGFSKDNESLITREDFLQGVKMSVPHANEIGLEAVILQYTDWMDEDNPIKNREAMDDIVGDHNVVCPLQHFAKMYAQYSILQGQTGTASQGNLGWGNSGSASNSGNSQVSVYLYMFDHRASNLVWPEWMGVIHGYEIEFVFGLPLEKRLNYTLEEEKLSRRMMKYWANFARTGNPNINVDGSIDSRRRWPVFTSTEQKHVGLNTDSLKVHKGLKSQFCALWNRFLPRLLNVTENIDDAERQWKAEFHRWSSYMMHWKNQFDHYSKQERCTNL

Structure (SMILES) | IC50 [1] [µM] | % Inhibition (Jack bean Urease) [% Inhibition]
CC(C)c1ccc(CCCCCCCCCCCCCCCCCO)cc1 [compound 1, sorokiniol] | 9.08 | 
NC(N)=S [thiourea] |  | 95 ± 1.50
